This is an account of results in PubChem BioAssay (NCI).

Molecules are shown by their SMILES.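 Five concentrations, 48 hours, 96-well plates. GI50 = concentration required for 50% inhibition of growth. Definition used: TGI = concentration required for complete inhibition of growth.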

Experiment in all cases: NCI-60 cell line screen, 48 h
Test [1] has as its system 786-0 renal.
For test [2], the system named is HT29 colon.
For test [3], the system named is LOX IMVI melanoma.
Test [4] concerns NCI-H226 lung.
Test [5] concerns NCI-H460 lung.
In test [6] the test system is NCI/ADR-RES ovarian.
The test system of test [7] is SF-539 CNS.
The test system of test [8] is SN12C renal.
Test [9] has as its system UO-31 renal.
The test system of test [10] is SK-OV-3 ovarian.

In the case of `ClCc1cccc(Cn2cnc3c(Cl)nc(Cl)nc32)c1`, the GI50 was 12.4 µM in test [1]; 2.39 µM in test [2]; 1.69 µM in test [3]; 3.24 µM in test [4]; 2.36 µM in test [5]; 2.42 µM in [6]. Further, the GI50 in test [7] was 2.2 µM; in test [8] it was 2.14 µM; in [9] it was 1.58 µM. In addition, the TGI in [1] was 26.8 µM; in test [2] it was > 100 µM; in [3], 3.4 µM; in test [5] it was 6.25 µM; in [6], 5.23 µM; in [7], 14.1 µM. Also, the figures for the TGI in test [8] and in [9] were 4.66 µM and 3.06 µM, respectively.

Take `C=C(CN1CCc2c([nH]c3ccccc23)C1)c1ccc(C(=O)Nc2ccccc2N)cc1`: the GI50 was 4.96 µM in test [1]; 4.52 µM in test [3]; 1.32 µM in test [4]; 3.57 µM in test [5]; 1.51 µM in test [6]; 2.76 µM in test [7]. For the same molecule, the GI50 was 3.14 µM in test [10], 2.33 µM in test [8] and 3.53 µM in test [9]. The TGI in [1] came to 23.6 µM; in [3] it was 10.2 µM; in test [4], 10.1 µM; in test [5], 21 µM; in test [6], 17.1 µM; in [7], 9.81 µM. The TGI came to 11.6 µM in test [10], 9.98 µM in test [8] and 9.89 µM in [9].

Consider `COc1ccc2c(c1)CN([C@@H](C)[C@H]1CC[C@H]3[C@@H]4CC[C@H]5C[C@@H](O)CC[C@]5(C)[C@H]4CC[C@]13C)CO2`, for which the TGI came to 2.7 µM in [1]; 3.63 µM in [2]; 24.3 µM in test [4]; 2.47 µM in test [5]; 18.6 µM in [6]; 3.33 µM in test [7]. The TGI in test [10] worked out at 3.56 µM; in [8] it was 22.6 µM; in [9] it was 3.39 µM.

Turning to `COc1ccc(/C=C2/C(=O)N(C(=O)c3ccccc3O)N=C2C)cc1`, the TGI is > 100 µM in test [1]; > 100 µM in test [2]; > 46.6 µM in test [3]; 32.3 µM in [4]; > 100 µM in test [5]; 14.1 µM in test [6]. The TGI in test [7] was 2.2 µM; in [10], > 100 µM; in [8], > 32 µM.

For `CC(=O)/C=C/c1ccc(Nc2c3ccccc3nc3occ(Cl)c23)cc1`, the GI50 in test [1] is 3.17 µM; in [2], 2.58 µM; in test [4] it was 4.87 µM; in test [5], 2.96 µM; in test [6] it was 2.56 µM; in [7], 4.52 µM. Also, the GI50 in test [10] is 8.21 µM; in test [8] it was 3.29 µM; in test [9] it was 14.2 µM. The TGI in [1] was 17.2 µM; in test [2], > 100 µM; in test [4], 21.7 µM; in test [5], 14.6 µM; in [6] it was 5.88 µM; in [7] it was 22.9 µM. The TGI in [10] was 65.6 µM; in test [8], 14.3 µM; in test [9] it was > 100 µM.

`Cn1cc(-c2cc(-c3cn(C)c4ccc(Cl)cc34)[nH]n2)c2cc(Cl)ccc21`: the GI50 in test [1] is 3.41 µM; in test [2], 3.57 µM; in [3], 1.7 µM; in test [4], 5.29 µM; in [5] it was 2.35 µM; in test [6], 2.25 µM. For the same molecule, the GI50 in [7] is 1.81 µM; in [10], 5.81 µM; in test [9] it was 3.01 µM. Besides, the TGI in test [1] is 11.4 µM; in test [2] it was 18.1 µM; in [3], 3.8 µM; in test [4], > 100 µM; in test [5] it was 5.47 µM; in test [6], 6.59 µM. Also, the TGI in test [7] is 3.46 µM; in test [10], > 100 µM; in [9], 14.8 µM.

Turning to `CCSc1ccc([C@@H]2[C@@H](O)C(=O)N2c2cc(OC)c(OC)c(OC)c2)cc1`, the GI50 in test [1] was < 0.016 µM; in [2], < 0.0155 µM; in [3], < 0.0147 µM; in test [4], 0.521 µM; in test [5], < 0.0138 µM; in test [6], 0.0157 µM. Moreover, the GI50 was 0.0271 µM in [10], 0.0441 µM in test [8] and 0.21 µM in test [9]. Besides, the TGI in test [1] worked out at 29 µM; in test [2], 11.5 µM; in test [3] it was 14.5 µM; in [4], 33.7 µM; in [5], 11.9 µM; in [6], 23.9 µM. For the same molecule, the TGI was 38.1 µM in test [10], 22.2 µM in [8] and 34.2 µM in [9].

Turning to `CO[C@H]1/C=C/O[C@@]2(C)Oc3c(C)c(O)c4c(O)c(c(/C=N/N5CCN(C)CC5)c(O)c4c3C2=O)NC(=O)/C(C)=C\C=C\[C@H](C)[C@H](O)[C@@H](C)[C@@H](O)[C@@H](C)[C@H](OC(C)=O)[C@@H]1C`, the TGI in [1], in test [2], in test [5], in test [6], in test [10] and in test [8] was > 100 µM in each case. In addition, the TGI in [9] was > 100 µM.

Turning to `CC(/C=C/C(O)=C1/C(=O)CNC1=O)=C\[C@@H](C)[C@H]1O[C@@]2(C)O[C@H](C(=O)[C@@H]3O[C@@]32C)[C@@H]1C`, the TGI in test [1] was 36.5 µM; in test [2], 47 µM; in test [3] it was 33.5 µM; in [4], 54.4 µM; in test [6], 63.7 µM; in test [7] it was 40 µM. The figures for the TGI in [10], in test [8] and in test [9] were 46.8 µM, 47.3 µM and 33.2 µM, respectively.

In the case of `COc1ccc(O)c(C(=O)CCC(=O)O)c1`, the TGI in test [1], in test [2], in test [3], in [4], in test [5] and in test [7] was > 100 µM each time. Further, the TGI in test [10], in test [8] and in test [9] was > 100 µM each time.

Take `CCOP(=O)(OCC)/C(C#N)=C/c1ccccn1`: the TGI in test [1], in [2], in test [3], in test [4], in test [5] and in test [6] was > 100 µM each time. The TGI in [7], in test [10] and in [8] was > 100 µM in each case.

As for `CCOc1ccc(N=C(NC(=O)c2ccccc2)SC)cc1`, the TGI in test [1], in test [2], in test [3], in test [4], in [5] and in test [7] was > 100 µM each time. Further, the TGI in test [10], in test [8] and in test [9] was > 100 µM in each case.
